Experimental findings from PMC12002301, “Discovery and functional characterization of a bombesin-type neuropeptide signaling system in an invertebrate” (Proceedings of the National Academy of Sciences of the …, 2025) are described below.

For one assay, the system named is ArBNR2. The assay can be described thus: Luminescence (GFP-aequorin Ca2+) assay, CHO-K1 cells coexpressing ArBNR2 and Gqs5. The class given is cell-based, Asterias rubens. The settings on record: ArBNR2, words; up to 10^-5 M. On the procedure: Having investigated relationships of eleven A. rubens BN-type receptor candidates (ArBNR1-11) with BN-type, ET-type, and CCHa/EP-type receptors in other taxa, ArBNR1 was identified as the best candidate and therefore this was selected for experimental testing. However, two other receptors (ArBNR2 and ArBNR3) were also tested. The methods employed for functional characterization of A. rubens neuropeptide receptors have been described previously ([57]) and a description of the methods employed in this study is included in SI Appendix, SI Methods. […]
Functional characterization of A. rubens BN-type receptors
Two cDNAs encoding ArBNR1 and ArBNR3 were cloned from A. rubens radial nerve cord cDNA using Q5 polymerase (NEB, Cat. no. M0491S) and PCR with specific primers (SI Appendix, Table S5). To facilitate expression of the cloned receptors, the forward primers were designed to contain a partial Kozak consensus sequence (ACC) before the ATG start codon. Then, PCR products were inserted into the mammalian expression vector pcDNA 3.1(+) (Invitrogen, Cat. no.
V79020) that had been cut in advance with the restriction enzyme EcoRV (NEB, Cat. no. […] Successful ligation and the direction of the insert was determined by restriction enzyme digestion and sequencing (TubeSeq service; Eurofins Genomics). […]
identical to residues 18 - 270 of the protein XP_033631283.1, which was determined from genome […]

Assay [1] relates to CHO-K1 cells transfected with empty pcDNA3.1(+) vector. The assay can be described thus: Luminescence control assay, CHO-K1 cells cotransfected with empty pcDNA3.1(+) vector and Gqs5. The class given is cell-based, Chinese hamster. The conditions noted are these: empty pcDNA3.1(+) vector and Gqs5, words.

As for “EPMPSSLALYIANLSP-NH2 [ArBNP65-81, C-terminally amidated 16-residue peptide predicted to be derived from residues 65 to 81 of ArBNP]”, the peptide-induced luminescence entry (with ArBNR2; in assay [1]) was “did not trigger luminescence” throughout.
With “NYNRVFGPTY-NH2 [ArBN5-14, C-terminally amidated 10-residue peptide corresponding to the C-terminal region of ArBN]”, the peptide-induced luminescence entry (in the assay on ArBNR2; in assay [1]) was “did not trigger luminescence” in each case.
